Reference: patent US4220755A, “Fortimicin B derivatives and process for production thereof” (Abbott Laboratories, priority 1976, dated 1980)
In brackets after ≈: the same amount, converted by molar mass. Read-outs that look alike come from different tables or passages of the source.

Legend:
[1] = system: Escherichia coli Juhl; test: ED50 in infected mice; format: in vivo, ddY-strain mice; conditions: ip, 168 h, read-out: ED50 EC
Experimental: (§1) In this experiment, one group consisting of five ddY-strain mice is used. The microorganisms shown below are inoculated into each animal. One hour after the inoculation, test compounds dissolved in distilled water for injection are injected intraperitoneally to test animals by one shot. The test animals are observed one week after the injection, and the ED50 is calculated according to the method of Behrens-Karber.
*^2 EC means Escherichia coli Juhl. 2.1 × 10^4 cells are
inoculated into each mouse.

[2] = in vivo; conditions: mouse, iv
Experimental: In this experiment, one group consisting of five ddY-strain mice is used. Test compounds dissolved in 0.2 ml of distilled water for injection are injected intravenously into each animal in 10 seconds. The LD50 is calculated according to the method of Behrens-Karber.

[3] = system: Proteus vulgaris KY4277 ATCC6897; test: MIC, agar dilution method, pH 8.0; format: cell-based; conditions: ATCC6897; pH 8.0; Proteus vulgaris KY4277; read-out: Minimum inhibition concentration (MIC), PV
Experimental: (§2) Measurement was carried out according to the agar dilution method, using a medium of pH 8.0, or the Japanese Antibiotic Medicament Standard, using a medium of pH 7.2 Units are in mcg/ml.

[4] = system: Shigella sonnei KY4281 ATCC9290; test: MIC, agar dilution method, pH 8.0; format: cell-based; conditions: ATCC9290; pH 8.0; Shigella sonnei KY4281; read-out: Minimum inhibition concentration (MIC), SS
Experimental: as §2

[5] = system: Staphylococcus a ureus 226; test: MIC, agar dilution method, pH 7.2; format: cell-based, Staphylococcus aureus
Experimental: as §2

[6] = Stability in alkaline aqueous conditions; format: physicochemical; conditions: for Stability in aqueous solution: free base
Experimental: The stability of 4-N-acylfortimicin B derivatives in aqueous alkaline conditions is poor. […] Therefore, purification of these compounds under basic conditions (for example, column chromatography with Amberlite CG-50, eluting with aqueous ammonia) is not practical.
In contrast with the instability of 4-N-acylfortimicin B derivatives, 4-N-alkylfortimicin B derivatives are so stable that no decomposition occurs even in aqueous barium hydroxide solution at reflux temperature for 18 hours. Therefore, in the case of 4-N-alkylfortimicin B, any substituents can be introduced at 4-N-position of fortimicin B, even though such substituents can not be introduced as the acyl type to such position due to the aforementioned instability.

[7] = system: various microorganisms; test: Antibacterial activity (general statements); format: cell-based; conditions: qualitative statement
Experimental: as §2

[8] = system: Klebsiella pneumoniae 8045; test: ED50 in infected mice; format: in vivo, ddY-strain mice; conditions: 168 h, read-out: ED50 KP
Experimental: as §1
*^1 KP means Klebsiella pneumoniae 8045. 1.3 × 10^5 cells
are inoculated into each mouse.

[9] = system: Providencia sp 164; test: MIC, agar dilution method, pH 7.2; format: cell-based
Experimental: as §2
7: gentamicin, producing acetyltransferase type II.

[10] = pH 7.2, Staphylococcus aureus 226, read-out: Minimum inhibition concentration (MIC)
[11] = pH 7.2, Providencia sp 164, 7**: gentamicin, producing acetyltransferase type II, read-out: Minimum inhibition concentration (MIC)

CO[C@H]1[C@@H](O)[C@H](N)[C@@H](O[C@H]2O[C@H]([C@H](C)N)CC[C@H]2N)[C@H](O)[C@@H]1N(C)C(=O)CN [Compound 2, 4-N-glycylfortimicin B, reference compound]
ED50 ([1]; Escherichia coli): 5.06 mg/kg | LD50 [2]: 330 mg/kg | MIC [3]: 0.32 µg/mL (≈ 0.789 µM) | MIC [4]: 0.63 µg/mL (≈ 1.55 µM) | MIC ([5]; pH 7.2, read-out: Minimum inhibition concentration (MIC)): 0.78 µg/mL (≈ 1.92 µM) | Stability in aqueous solution ([6]; pH 10, 100° C., 4 hours): almost completely decomposed | Stability in aqueous solution ([6]; pH 10, room temperature, 2 weeks): almost completely decomposed | Stability under strongly alkaline conditions [6]: slightly unstable | Antibacterial activity [7]: have antibacterial activity | ED50 ([8]; Klebsiella pneumoniae, 8045, ip): 2.06 mg/kg | MIC ([9]; Providencia, 164, pH 7.2, read-out: Minimum inhibition concentration (MIC)): 25 µg/mL (≈ 61.7 µM)

CO[C@H]1[C@@H](O)[C@H](N)[C@@H](O[C@H]2O[C@H]([C@H](C)N)CC[C@H]2N)[C@H](O)[C@@H]1N(C)C(=O)CNC(N)=O [Compound 3, 4-N-hydantoylfortimicin B, reference compound]
MIC [3]: 0.63 µg/mL (≈ 1.4 µM) | MIC [4]: 1.25 µg/mL (≈ 2.79 µM) | MIC [5, 10]: 6.25 µg/mL (≈ 13.9 µM) | Stability under strongly alkaline conditions [6]: slightly unstable | Antibacterial activity [7]: have antibacterial activity | MIC [9, 11]: 100 µg/mL (≈ 223 µM)

CO[C@H]1[C@@H](O)[C@H](N)[C@@H](O[C@H]2O[C@H]([C@H](C)N)CC[C@H]2N)[C@H](O)[C@@H]1N(C)C[C@@H](O)CCN [Compound 27, 4-N-[(S)-4-amino-2-hydroxybutyl]fortimicin B]
ED50 ([1]; mice, intraperitoneal one shot 1 hour after inoculation of Escherichia coli Juhl (2.1 × 10^4 cells), sulfate, one week observation): 2.81 mg/kg | LD50 [2]: 135 mg/kg | MIC [3]: 0.32 µg/mL (≈ 0.735 µM) | MIC [4]: 1.25 µg/mL (≈ 2.87 µM) | MIC [5, 10]: 0.4 µg/mL (≈ 0.918 µM) | ED50 ([8]; ip, mice, intraperitoneal one shot 1 hour after inoculation of Klebsiella pneumoniae 8045 (1.3 × 10^5 cells), sulfate, one week observation): 1.88 mg/kg | MIC [9, 11]: 25 µg/mL (≈ 57.4 µM)
